One compound from patent US20260191769A1, “DRUG ELUTING IMPLANTS AND USES THEREOF” (MUSC FOUNDATION FOR RESEARCH DEVELOPMENT, priority 2022, published 2026) can be followed below.

The test deals with Methicillin-Resistant Staphylococcus aureus (MRSA). Description: microbe, parasite or virus in culture.

Where two headings read alike, the source gives them in different places.

Method: At the prescribed time points, gels were removed and placed in active bacteria cultures for 24 hours. After 24 hours, the gels were removed and the bacteria zone of exclusion will be measured.
Briefly, Methicillin-Resistant Staphylococcus aureus (MRSA) was cultured in brain-heart infusion broth and diluted to match a 0.5 McFarland turbidity standard. The resulting culture was tested with gram stain to ensure the MRSA was present. After determining that the MRSA was indeed gram-positive and present, the MRSA was carefully spread onto 150 mm agar plates to inoculate the plates. 5 mcg and 30 mcg vancomycin loaded disks were placed on each agar plate as antibiotic controls. Six plates were run in this experiment, with three plates containing aliquots (from the eluates collected from the study of Example 1 Aim 1) with peroxide (FIG. 7A), while the other three plates contained aliquots run with collagenase & phosphate buffered saline (FIG. 7B).
Aliquots from days 3, 7, 14, 21, and 28 were run. 10 μL of each aliquot was pipetted onto filter paper and placed onto the agar plates. The agar plates were incubated for 24 hours at 37 degrees Celsius, and the zones of inhibition were measured the following morning.

The term zone of inhibition denotes the size of the clear area around the sample on an inoculated plate. For the compound `CN[C@H](CC(C)C)C(=O)N[C@H]1C(=O)N[C@@H](CC(N)=O)C(=O)N[C@H]2C(=O)N[C@H]3C(=O)N[C@H](C(=O)N[C@H](C(=O)O)c4cc(O)cc(O)c4-c4cc3ccc4O)[C@H](O)c3ccc(c(Cl)c3)Oc3cc2cc(c3O[C@@H]2O[C@H](CO)[C@@H](O)[C@H](O)[C@H]2O[C@H]2C[C@](C)(N)[C@H](O)[C@H](C)O2)Oc2ccc(cc2Cl)[C@H]1O` [Vanc., vancomycin], the zone of inhibition at 5 µg/disc reads like this: (read-out: 5 mcg Vanc. zone of inhibition, average, 5 mcg vancomycin control disk, average of plates 1-3 (collagenase & phosphate buffered saline)) 1.33 mm; (read-out: 5 mcg Vanc. zone of inhibition, average, 5 mcg vancomycin control disk, average of plates 4-6 (peroxide)) 1.33 mm. Moreover, the zone of inhibition at 30 µg/disc by setting is: (read-out: 30 mcg Vanc. zone of inhibition, average, 30 mcg vancomycin control disk, average of plates 1-3 (collagenase & phosphate buffered saline)) 4.67 mm; (read-out: 30 mcg Vanc. zone of inhibition, average, 30 mcg vancomycin control disk, average of plates 4-6 (peroxide)) 4.33 mm.
